{"source": "patent US20220202811A1", "about": "“TREATMENT FOR RETINOIC ACID RECEPTOR-RELATED ORPHAN RECEPTOR Ɣ (RORƔ)-DEPENDENT CANCERS” (The Regents of the University of California, priority 2019, published 2022)", "key": {"[1]": {"test_system": "KP^f/fC derived flank tumors", "assay": "KP^f/fC flank tumors in immunocompetent mice", "assay_type": "in vivo, mouse"}, "[2]": {"test_system": "pancreatic cancer cell", "assay": "in vitro sphere formation, antagonists of Table 2", "assay_type": "cell-based, mouse", "settings": "extent of growth suppression relative to control", "method": "Pancreatic tumorsphere formation assays were performed and modified from (Rovira et al., 2010). Briefly, low-passage (<6 passages) WT or REM2-KP^f/fC cell lines were infected with lentiviral particles containing shRNAs; positively infected (red) cells were sorted 72 hours after transduction. 100-300 infected cells were suspended in tumorsphere media: 100 μl DMEM F-12 (Gibco, Life Technologies) containing 1× B-27 supplement (Gibco, Life Technologies), 3% FBS, 100 μM B-mercaptoethanol (Gibco, Life Technologies), 1× non-essential amino acids (Gibco, Life Technologies), 1× N2 supplement (Gibco, Life Technologies), 20 ng/ml EGF (Gibco, Life Technologies), 20 ng/ml bFGF2 (Gibco, Life Technologies), and 10 ng/ml ESGRO mLIF (Thermo Fisher). Cells in media were plated in 96-well ultra-low adhesion culture plates (Costar) and incubated at 37° C. for 7 days. KP^f/fC in vitro tumorsphere formation studies were conducted at a minimum of n=3 independent wells per cell line across two independent shRNA of n=3 wells; however, the majority of these experiments were additionally completed in >1 independently-derived cell lines n=3, at n=3 wells per shRNA."}, "[3]": {"test_system": "KP^f/fC tumors", "settings": "chimeric wild type versus RORγ recipient mice"}, "[4]": {"settings": "SR2211 in combination with gemcitabine"}}, "data": [{"compound": "OC(c1ccc(-c2ccc(CN3CCN(Cc4ccncc4)CC3)cc2)c(F)c1)(C(F)(F)F)C(F)(F)F", "note": "[SR2211]", "values": [{"measurement": "depletion in CD133+ cells", "setting": "[1]; SR2211 alone", "value": 3, "unit": "fold"}, {"measurement": "depletion in Msi+ cells", "setting": "[1]; SR2211 alone", "value": 3, "unit": "fold"}, {"measurement": "depletion of CD133+ cells", "setting": "[1]; [4]", "value": 11, "unit": "fold"}, {"measurement": "depletion of Msi2+ cells", "setting": "[1]; [4]", "value": 6, "unit": "fold"}, {"measurement": "in vitro sphere formation", "setting": "[2]", "value": "✓✓✓✓ (dose response observed; growth suppressed by 8-fold or more relative to control)"}, {"measurement": "impact on tumor growth, cellularity, and stem cell content", "setting": "[3]", "value": "equivalent"}]}]}
